Test results: patent publication US20210395327A1, “Growth Hormone-Releasing Hormone Antagonists and Uses Thereof” (United States Government As Represented By The Department …, priority 2019, published 2021)
Non-standard residues stand in square brackets, D forms with d. Residues, ends and D or L forms follow the SMILES beside them. *: point of attachment. Phe(F5) = N[C@@H](Cc1c(F)c(F)c(F)c(F)c1F)C(=O)O; hArg = N=C(N)NCCCC[C@H](N)C(=O)O; 12Ado = NCCCCCCCCCCCC(=O)O; Nle = CCCC[C@H](N)C(=O)O; Orn = NCCC[C@H](N)C(=O)O; Abu = CC[C@H](N)C(=O)O; PhAc = O=C(Cc1ccccc1)*

What was measured:
[1] = test system: gene expression in normal mouse lung fibroblasts; experiment: RNAseq of cultured lung fibroblasts; format: cell-based; details: 1 and 5 μM MIA-602, not exposed to bleomycin
Procedure: Lung fibroblasts. Newborn mouse lung fibroblasts (Mlg 2908) were obtained from the American Type Culture Collection, Manassas, Va. and cultured in Eagle's minimal essential medium. Cells were grown in 6-well plates before incubation with 1 or 5 μM MIA-602 or vehicle, RNA isolation, and oxygen consumption measurements.
RNA was extracted from cultured fibroblasts using a Direct-zol RNA MicroPrep kit (R2060; Zymo Research, Irvine, Calif.). Cells were washed with PBS and lysed in TRIreagent™, then purified using Direct-zol RNA columns. DNase I treatment was done in columns and RNA eluted in DNase/Rnase-free water.
RNAseq and Pathway analyses. At least 10 ng of total RNA was used as input for the KAPA RNA HyperPrep Kit with RiboErase (HMR) to create ribosomal RNA-depleted sequencing libraries, including sample indexing, to allow for multiplexing. Cluster generation and sequencing was done on the Illumina cBOT and HiSeq 3000 using reagents provided by Illumina, finally generating >32 million single-end 100 base reads per sample.

[2] = test system: bleomycin-induced lung infiltrates; experiment: Bleomycin mouse model, micro-CT of lungs; format: in vivo, C57Bl/6J mice; details: bleomycin plus MIA-602 vs vehicle
Procedure: Bleomycin and GHRH-R antagonist treatment. Mice were treated with 0.8 units of bleomycin (Bleomycin for Injection USP, Hospira, Lake Forest, Ill.) intraperitoneally (IP) on days 1, 3, 7, 10, 14 and 21 (Collins S, Chan-Li Y, Oh M, Vigeland C, Limjunyawong N, Mitzner W, Powell J D, Horton M R (2016). JCI Insight 1(4):1-13). Mice (randomly assigned) were simultaneously treated subcutaneously (sc) with MIA-602 (5 μg/day) or its vehicle (100 μL/day). MIA-602 was dissolved in DMSO (ACS grade; Sigma-Aldrich) and diluted 1:500 in normal saline for daily sc injection on days 0-21.
Tissue preparations. Mice were killed by CO2 inhalation before any treatment, or on days 14 or 28 for micro-CT scans of lungs and harvesting of lung tissue (Vande Vel de G, Poelmans J, De Langhe E, Hillen A, Vanoirbeek J, Himmelreich U, Lories R (2016). Dis Model Mech 9:91). The right mainstem bronchus was ligated and the right lung removed and frozen at −80° C. for hydroxyproline (HP) assays. The left lung was filled with 10% buffered formalin at […] cm H2O pressure, the bronchus ligated, and the lung fixed in formalin. Fixed lungs were embedded in wax and 5 μm sections stained with hematoxylin and eosin (H&E) or Masson's trichrome stain.
Micro-CT. Mice in each group were assessed by micro-CT scans (Bruker SkyScan 1176 Low Dose Micro-CT, Knotich, Belgium) of the lungs after CO2 inhalation. […]

[3] = test system: RT4 urothelial cancer cells; experiment: In vitro cell viability, RT4; format: cell-based, human; details: antagonist 5 μM for 72 h, cell proliferation assay; MIA602 = 1
Procedure: The inhibitory effects of the various synthesized GHRH antagonists were tested in cell proliferation assays in various human cancer cell lines including stomach cancer (KATOIII, N87), colon cancer (HT-29), urothelial cancer (J82, RT4), pancreatic cancer (PANC-1, CFPAC-1), prostatic cancer (PC3), breast cancer (MX-1, HCC1806), ovarian cancer (SK-OV-3, OVCAR-3) and lung cancer (HCC827, H460).
Cell culture. Human cancer cell lines including pancreatic (PANC-1 and CFPAC-1), lung (HCC827 and H460), stomach (NCI-N87 and KATOIII), urothelial (J82, RT4), prostatic (PC3), breast (MX-1 and HCC 1806), colorectal (HT-29), and ovarian (SK-OV-3 and OVCAR-3) were obtained from the American Type Culture Collection (ATCC) and cultured at 37° C. in a humidified 95% air/5% CO2 atmosphere in the medium recommended by ATCC.
In vitro cell viability. Cell viability was analyzed as follows: cancer cells including pancreatic (PANC-1 and CFPAC-1), lung (HCC827 and H460), stomach (NCI-N87 and KATOIII), urothelial (J82, RT4), prostatic (PC3) and breast (MX-1 and HCC 1806), colorectal (HT-29) and ovarian (SK-OV-3 and OVCAR-3) were grown on 96 well plates to ˜60% confluence, the cells were starved for 24 h in culture medium containing 0.5% FBS. Cells were then treated with GHRH antagonists MIA602 AVR compounds at concentrations of 1, 2.5 or 5 μM, or vehicle (0.1% DMSO) in quintuplicates for 72 hours. The medium was replaced every 48 hours. Cell viability was measured using CellTiter 96 aqueous one solution kit (Promega). Inhibitory effects of tested AVR compounds in comparison to that of MIA602 are presented as inhibitory potency.
Inhibitory effects of selected AVR compounds in comparison to that of MIA602 are presented as inhibitory potency (e.g., percentage of inhibition). […] The cell lines tested including lung cancer HCC827 (FIG. 2A), pancreatic cancer CFPAC-1 (FIG. 2B), stomach cancer N87 (FIG. 2C), colon cancer HT-29 (FIG. 2D), breast cancers MX-1 and HCC1806 (FIGS. 2 E, F). […]

CCCC[C@H](NC(=O)[C@@H](NC(=O)[C@H](CC(=O)O)NC(=O)[C@H](CCC(N)=O)NC(=O)[C@H](CC(C)C)NC(=O)[C@H](CC(C)C)NC(=O)[C@H](CCCN)NC(=O)[C@H](Cc1c[nH]cn1)NC(=O)[C@H](C)NC(=O)[C@H](CO)NC(=O)[C@H](CC(C)C)NC(=O)[C@H](CCC(N)=O)NC(=O)[C@H](CC)NC(=O)[C@H](CC(C)C)NC(=O)[C@@H](NC(=O)[C@H](CCCN)NC(=O)[C@H](Cc1c[nH]cn1)NC(=O)[C@H](Cc1ccc(OC)cc1)NC(=O)[C@H](CCCCNC(=N)N)NC(=O)[C@H](C)NC(=O)[C@@H](NC(=O)[C@H](Cc1c(F)c(F)c(F)c(F)c1F)NC(=O)[C@@H](NC(=O)[C@H](C)NC(=O)[C@H](CC(=O)O)NC(=O)[C@@H](CCCNC(=N)N)NC(=O)[C@H](Cc1ccc(O)cc1)NC(=O)CCCCCCCCCCCNC(=O)Cc1ccccc1)[C@@H](C)CC)[C@@H](C)O)C(C)C)[C@@H](C)CC)C(=O)N[C@H](CCCNC(=N)N)C(=O)N[C@@H](CCCCNC(=N)N)C(N)=O [MIA-602, PhAC-Ada, Tyr D-Arg, Asp, Ala, Ile, 5FPhe, Thr, Ala, Har, Tyr(Me), His, Orn, Val, Leu, Abu, Gin, Leu, Ser, Ala, His, Om, Leu, Leu, Gin, Asp, Ile; Nle, D-Arg, Har NH2, reference compound] ({PhAc-12Ado}-Y[dR]DAI[Phe(F5)]TA[hArg]Y(Me)H[Orn]VL[Abu]QLSAH[Orn]LLQDI[Nle][dR][hArg]-NH2)
fibroblast gene expression, RNA-seq (in words) [1]: significant downregulation of genes involved in collagen fibril organization, cell-matrix adhesion and elastic fiber assembly | infiltrative densities in lungs, micro-CT (in words) [2]: less prominent infiltrative densities | relative inhibitory potency in comparison to MIA-602, Urothelial RT4 [3]: 1
